These results are taken from US11136409B2, “Compositions and methods for identification, assessment, prevention, and treatment of AML using USP10 biomarkers and modulators” (Dana-Farber Cancer Institute, Inc., priority 2016, dated 2021).

Each structure is given as a SMILES string. Read-outs that look alike come from different tables or passages of the source. A value given as a limit tells only on which side of the number the result lay.

The subject of assay [1] is AML primagraft (D835Y+, FLT3-ITD+) cells. The experiment in a line: Treatment of mutant FLT3-expressing AML primagraft cells ex vivo. It counts as cell-based, human. The note with it: read-out: IC50 (+/−S.D.) AML primagraft (D835Y+, FLT3-ITD+). The procedure:
All animal studies were performed according to protocols approved by the Dana-Farber Cancer Institute's Institutional Animal Care and Use Committee. […] Mice were sacrificed on day 21 of treatment. Bone marrow was flushed from mouse femurs, and spleens and livers were dissected and preserved first in formalin, followed 24 hours later by preservation in 70% ethanol. […] All AML primagraft samples used in the studies described herein were obtained through the Public Repository of Xenografts (proxe.org).
(§1) The CellTiter-Glo® assay (Promega, Madison, Wis.) was used for proliferation studies and carried out according to manufacturer instructions. Cell viability is reported as percentage of control (untreated) cells, and error bars represent the standard error of the mean for each data point.

Assay [2] deals with T1, human USP10 (residues 376-798) (Homo sapiens, UniProt Q14694).
T1 construct: A construct of human USP10 covering residues 376-798 in the pET28a vector; His-tag (cleaved yes); made in house; host or cells: E. coli BL21 (DE3)
T1 sequence (Q14694 376-798): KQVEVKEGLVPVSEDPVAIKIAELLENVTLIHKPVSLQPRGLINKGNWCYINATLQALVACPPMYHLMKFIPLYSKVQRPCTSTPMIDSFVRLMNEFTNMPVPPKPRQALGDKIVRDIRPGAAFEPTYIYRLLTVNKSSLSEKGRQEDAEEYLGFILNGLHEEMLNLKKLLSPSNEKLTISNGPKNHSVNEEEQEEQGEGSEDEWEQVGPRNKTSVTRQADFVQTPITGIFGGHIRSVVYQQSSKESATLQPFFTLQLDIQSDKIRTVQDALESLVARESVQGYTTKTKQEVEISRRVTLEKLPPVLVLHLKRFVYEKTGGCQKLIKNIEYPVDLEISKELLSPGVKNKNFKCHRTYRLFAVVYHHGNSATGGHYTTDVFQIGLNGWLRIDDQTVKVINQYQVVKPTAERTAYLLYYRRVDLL
Description: In vitro USP10 activity assay (Ubiquitin-AMC). The format is biochemical. Particulars: biochemical assay, FIG. 13B.

Another assay relates to Ba/F3-FLT3-ITD cells. The experiment in a line: Immunoblot of FLT3 / Beclin-1 in Ba/F3-FLT3-ITD cells. It counts as cell-based, murine. The note with it: for FLT3 protein levels: immunoblot, Ba/F3-FLT3-ITD cells. The text has this:
The following antibodies were purchased from Cell Signaling Technology (Danvers, Mass.): total AKT (rabbit, #9272) and total p44/42 MAPK (Erk1/2) (3A7) (mouse, #9107) were used at 1:1000 dilution. Anti-GAPDH (D16H-11) XP (R) (rabbit mAb, #5174) was used at 1:1000 dilution. Beclin-1 (rabbit, #3738) was used at 1:1000. USP10 (D7A5) (rabbit, #8501) was used at 1:1000 dilution. P53 (rabbit, #9282) was used at 1:1000 dilution. β-tubulin (rabbit, #2146s) was used 1:1000.
FLT3/Flk-2 (C-20) (sc-479) and Ub (P4D1) (mouse, sc-8017) were purchased from Santa Cruz Biotechnology, Inc. (Dallas, Tex.) and used at 1:1000 dilution for immunoblotting. Anti-pTyr (mouse, clone 4G10) was purchased from Upstate Biotechnology (Lake Placid, N.Y.) and was used at 1:1000 dilution. Anti-HAUSP/USP7 antibody (rabbit, ab4080) and anti-ubiquitin antibody (rabbit, ab7780) were purchased from Abcam (Cambridge, Mass.) and used at 1:1000 dilution.
Protein lysate preparation, immunoblotting, and immunoprecipitation were carried out as previously described in Weisberg et al. (2002) Cancer Cell 1:433-443.
On the technique in general: A western blot detects proteins with antibodies after separation by electrophoresis.

The target of the next assay is USP7 (Homo sapiens, UniProt Q93009). Description: USP7 IC50 of HBX19818 analogs (Table 9). The format is biochemical. Particulars: read-out: USP7 IC50 +/− SEM.
Chain of USP7 (Q93009 whole entry): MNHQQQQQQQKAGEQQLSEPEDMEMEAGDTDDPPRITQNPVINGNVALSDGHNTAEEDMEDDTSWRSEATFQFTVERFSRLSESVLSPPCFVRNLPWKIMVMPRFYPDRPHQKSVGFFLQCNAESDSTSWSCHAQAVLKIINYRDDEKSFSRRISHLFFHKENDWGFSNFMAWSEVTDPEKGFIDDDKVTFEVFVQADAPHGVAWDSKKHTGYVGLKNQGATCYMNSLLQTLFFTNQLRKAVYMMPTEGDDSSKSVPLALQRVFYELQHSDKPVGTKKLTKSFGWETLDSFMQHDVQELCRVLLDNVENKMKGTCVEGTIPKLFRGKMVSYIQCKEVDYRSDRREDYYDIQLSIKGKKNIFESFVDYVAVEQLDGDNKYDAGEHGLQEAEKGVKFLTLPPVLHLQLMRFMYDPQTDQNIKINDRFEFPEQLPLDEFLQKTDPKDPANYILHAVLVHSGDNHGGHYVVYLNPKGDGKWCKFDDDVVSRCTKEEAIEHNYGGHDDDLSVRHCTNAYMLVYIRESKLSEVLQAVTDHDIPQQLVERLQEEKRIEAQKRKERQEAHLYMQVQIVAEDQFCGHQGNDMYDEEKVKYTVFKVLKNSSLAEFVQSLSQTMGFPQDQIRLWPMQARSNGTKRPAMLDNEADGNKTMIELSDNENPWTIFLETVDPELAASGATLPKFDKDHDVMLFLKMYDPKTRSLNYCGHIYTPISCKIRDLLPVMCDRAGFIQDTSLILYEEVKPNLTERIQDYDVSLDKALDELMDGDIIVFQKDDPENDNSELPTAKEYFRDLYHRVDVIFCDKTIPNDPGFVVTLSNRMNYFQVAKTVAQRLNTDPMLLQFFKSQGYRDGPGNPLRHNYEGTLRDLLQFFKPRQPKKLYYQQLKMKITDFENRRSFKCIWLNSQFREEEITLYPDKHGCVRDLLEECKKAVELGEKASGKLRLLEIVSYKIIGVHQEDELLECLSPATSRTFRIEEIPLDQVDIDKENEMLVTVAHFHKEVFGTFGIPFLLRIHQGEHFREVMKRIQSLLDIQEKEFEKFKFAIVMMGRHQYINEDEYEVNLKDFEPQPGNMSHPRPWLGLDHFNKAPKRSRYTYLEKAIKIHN
Another assay concerns PBMCs. The experiment in a line: Treatment of PBMCs from healthy donors with USP10-targeting inhibitors. It counts as cell-based, human.
From the text: (§2) Nomo-1, P31-FUJ, and NB4 were obtained from Dr. Gary Gilliland. MV4, 11 cells were obtained from Dr. Anthony Letai. Hel, K562, THP, U937, TF-1 and K052 cells were purchased from the American Type Culture Collection (ATCC) (Manassas, Va., USA). […] Cell lines were submitted for cell line authentication and were authenticated within 6 months of manuscript preparation through cell line short tandem repeat (STR) profiling (DDC Medical, Fairfield, Ohio and Molecular Diagnostics Laboratory, Dana Farber Cancer Institute). […] PBMCs were generously provided by Dr. Steven Treon and Dr. Guang Yang.
as §1

Another assay concerns HEL. The experiment in a line: Anti-proliferation, 24 hr treatment (CellTiter-Glo). The format is cell-based, human. The note with it: read-out: Anti-proliferation IC50.
From the text: as §2, §1

For another assay, the system named is MV4,11. Described as above. The format is cell-based, human. Particulars: read-out: Anti-proliferation IC50.
From the text: as §2, §1

For the next assay, the system named is OCI-AML5. Described as above. The format is cell-based, human. Particulars: read-out: Anti-proliferation IC50.
From the text: as §2, §1

Setting [3] is: 24 hr assay, PBMC#1, read-out: IC50 (+/−S.D.) PBMC#1.
[4] abbreviates: 24 hr assay, PBMC#2, read-out: IC50 (+/−S.D.) PBMC#2.
[5] abbreviates: 72 hr assay, PBMC#1, read-out: IC50 (+/−S.D.) PBMC#1.
[6] abbreviates: 72 hr assay, PBMC#2, read-out: IC50 (+/−S.D.) PBMC#2.
The mark [7] stands for this setting: 24 hr treatment, HEL (FLT3 wt or null).
[8] abbreviates: 24 hr treatment, MV4,11 (FLT3-ITD).
The mark [9] stands for this setting: 24 hr treatment, OCI-AML5 (FLT3 wt or null).

On to `CCCN(CCC)CCCNC(=O)c1ccc2c(Cl)c3c(nc2c1)CCCC3` [C598-0466], for which the IC50 was determined as 4.1 µM in assay [1] (24 hr assay); 0.6 µM in assay [1] (72 hr assay); 3.6 µM on USP7; 10.5 µM in the assay on PBMCs (setting [3]); 10.5 µM in the assay with PBMCs (setting [4]); 4.8 µM in the assay with PBMCs (setting [5]). The IC50 in the assay with PBMCs (setting [6]) came out at 3.1 µM; with HEL (setting [7]) it was 16.8 µM; with MV4,11 (setting [8]), 4.1 µM; in the assay on OCI-AML5 (setting [9]), 8.6 µM. For the same compound, the “USP10 inhibition compared with HBX19818” value in assay [2] is listed as “more potent”. In addition, the FLT3 protein levels entry in the assay on Ba/F3-FLT3-ITD cells is given as “induces FLT3 degradation at lower concentrations”.

Take `O=C(NCCCN1CCN(Cc2ccccc2)CC1)c1ccc2nc3c(c(Cl)c2c1)CCCC3` [C598-0563]: the IC50 in assay [1] (24 hr assay) came to 12.2 µM; in assay [1] (72 hr assay) it was 2.8 µM; on USP7, 50 µM; in the assay with PBMCs (setting [3]) it was 22.9 µM; in the assay with PBMCs (setting [4]) it was 44.4 µM; in the assay on PBMCs (setting [5]), 15.6 µM. Moreover, the IC50 amounted to 7.9 µM with PBMCs (setting [6]), 19.6 µM with HEL (setting [7]), 9.7 µM with MV4,11 (setting [8]) and 17 µM in the assay with OCI-AML5 (setting [9]). The “USP10 inhibition compared with HBX19818” value in assay [2] is on record as “comparably to HBX19818”. Moreover, the FLT3 protein levels entry in the assay with Ba/F3-FLT3-ITD cells is listed as “induce loss of FLT3 at similar concentrations”.

For `CCN(CCCNC(=O)c1ccc2nc3c(c(Cl)c2c1)CCC3)Cc1ccccc1` [C673-0105], the IC50 is 8.5 µM in assay [1] (24 hr assay); 3.1 µM in assay [1] (72 hr assay); more than 100 µM at USP7; 17.2 µM with PBMCs (setting [3]); 17.4 µM with PBMCs (setting [4]); 10 µM in the assay with PBMCs (setting [5]). The IC50 in the assay on PBMCs (setting [6]) was 7.3 µM; in the assay on HEL (setting [7]), 34.4 µM; with MV4,11 (setting [8]), 7.5 µM; in the assay on OCI-AML5 (setting [9]), 19.5 µM. In addition, the “USP10 inhibition compared with HBX19818” value in assay [2] is given as “comparably to HBX19818”.

For `CN(CCCNC(=O)c1ccc2nc3c(c(Cl)c2c1)CCCC3)Cc1ccccc1` [HBX19818, reference compound], the IC50 in assay [1] (Homo sapiens, 24 hr assay) worked out at 9.8 µM; in assay [1] (Homo sapiens, 72 hr assay) it was 1.9 µM; with PBMCs (Homo sapiens, PBMC, 24 h, read-out: IC50 (+/−S.D.) PBMC#1) it was 25.5 µM; with PBMCs (Homo sapiens, PBMC, 24 h, read-out: IC50 (+/−S.D.) PBMC#2), 24.1 µM; with PBMCs (Homo sapiens, PBMC, 72 h, read-out: IC50 (+/−S.D.) PBMC#1), 12.4 µM; in the assay on PBMCs (Homo sapiens, PBMC, 72 h, read-out: IC50 (+/−S.D.) PBMC#2) it was 7.3 µM. For the same compound, the IC50 with HEL (Homo sapiens, HEL, 24 h) was found to be 25.7 µM; in the assay with MV4,11 (Homo sapiens, MV4-11, 24 h) it was 8.1 µM; with OCI-AML5 (Homo sapiens, OCI-AML-5, 24 h), 17.9 µM. In addition, in the assay on Ba/F3-FLT3-ITD cells (20 μM), the “Protein levels of Beclin-1 and FLT3” value is “strongly decreased”. Moreover, the FLT3 protein levels result in the assay with Ba/F3-FLT3-ITD cells is reported as “loss of FLT3 protein”.
